Usually pEC50 stands for the negative decadic logarithm of the EC50, by convention in mol/L. Read a low pEC50 as a large EC50. In general, Emax refers to the size of the effect at its maximum, as opposed to the concentration needed.

Each structure is given as a SMILES string. pEC50: −log10 of the molar value.

Assay [1] deals with human GLP-1R (Homo sapiens, UniProt P43220, G168S). The assay is described as follows: CHO GLP-1R Clone H6 cAMP HTRF agonist assay (Assay 1, high receptor density). Format: cell-based. As to conditions: for pEC50: CHO GLP-1R clone H6, cAMP HTRF, geometric mean; for Emax: CHO GLP-1R clone H6, arithmetic mean, relative to saturating GLP-1 (1 μM), read-out: Assay 1 Emax (%). The method, boiled down:
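Replicate runs were pooled. Potencies were averaged geometrically and maximal efficacies arithmetically, then rounded to two significant figures.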

The target in assay [2] is human GLP-1R (Homo sapiens, UniProt P43220, L260F). In words: CHO GLP-1R Clone C6 cAMP HTRF agonist assay (Assay 2, low receptor density). Format: cell-based. As to conditions: for pEC50: CHO GLP-1R clone C6, cAMP HTRF, geometric mean; for Emax: CHO GLP-1R clone C6, arithmetic mean, relative to saturating GLP-1 (1 μM). The source says: In Table 5 and Table 6, assay data are presented to two (2) significant figures as the geometric mean (EC50s) and arithmetic mean (Emax) based on the number of replicates listed (Number). A blank cell means there was no data for that Example or the Emax was not calculated.
(In TR-FRET formats the signal depends on donor and acceptor labels being close together.)

human GLP-1R (Homo sapiens, UniProt P43220, L260F), sequence (P43220 24-463 L260F): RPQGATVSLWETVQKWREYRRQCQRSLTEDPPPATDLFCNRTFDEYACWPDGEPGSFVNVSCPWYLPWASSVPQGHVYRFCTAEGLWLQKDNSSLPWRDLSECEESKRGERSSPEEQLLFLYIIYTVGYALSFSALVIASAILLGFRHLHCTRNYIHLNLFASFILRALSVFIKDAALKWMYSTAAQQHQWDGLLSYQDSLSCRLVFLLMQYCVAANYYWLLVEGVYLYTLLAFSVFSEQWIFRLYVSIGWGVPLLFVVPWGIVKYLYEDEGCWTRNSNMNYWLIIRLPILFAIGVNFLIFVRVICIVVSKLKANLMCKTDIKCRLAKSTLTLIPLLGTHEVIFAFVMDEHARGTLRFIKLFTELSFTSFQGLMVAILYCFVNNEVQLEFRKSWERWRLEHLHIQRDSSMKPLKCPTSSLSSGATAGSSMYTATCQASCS
human GLP-1R (Homo sapiens, UniProt P43220, G168S), sequence (P43220 24-463 G168S): as the sequence (P43220 24-463 L260F) above, with G145S, F237L counted along it

Consider `C[C@H]1CN(c2ccc(F)c(OCc3ccc(F)cc3F)n2)CCN1Cc1nc2ccc(C(=O)O)cc2n1C[C@@H]1CCO1` [Compound 133B, 2-{[(2S)-4-{6-[(2,4-difluorobenzyl)oxy]-5-fluoropyridin-2-yl}-2-methylpiperazin-1-yl]methyl}-1-[(2S)-oxetan-2-ylmethyl]-1H-benzimidazole-6-carboxylic acid], for which, at human GLP-1R [1], the pEC50 was 6.72 and the Emax stood at 91%. On human GLP-1R [2], the negative logarithm of the EC50 (pEC50) is 5.85 and the Emax amounted to 47%.
As to `COCCn1c(CN2CCN(c3ccc(F)c(OCc4ccc(C#N)cc4)n3)C[C@@H]2C)nc2ccc(C(=O)O)cc21` [Compound 175B, 2-{[(2S)-4-{6-[(4-cyanobenzyl)oxy]-5-fluoropyridin-2-yl}-2-methylpiperazin-1-yl]methyl}-1-(2-methoxyethyl)-1H-benzimidazole-6-carboxylic acid], at human GLP-1R [1], the pEC50 is 6.77 and the Emax was 78%. On human GLP-1R [2], the pEC50 was 5.68 and the Emax came out at 71%.
In the case of `N#Cc1ccc(COc2cccc(C3CCN(Cc4nc5ccc(C(=O)O)cc5n4Cc4ncco4)CC3)n2)c(F)c1` [Compound 139B, 2-[(4-{6-[(4-cyano-2-fluorobenzyl)oxy]pyridin-2-yl}piperidin-1-yl)methyl]-1-(1,3-oxazol-2-ylmethyl)-1H-benzimidazole-6-carboxylic acid], at human GLP-1R [1], the pEC50 was 6.82 and the Emax is 74%. For the same compound, at human GLP-1R [2], the pEC50 is 5.92 and the Emax amounted to 44%.
Turning to `C[C@H]1CN(c2cccc(OCc3ccc(C#N)cc3F)n2)CCN1Cc1nc2ccc(C(=O)O)cc2n1Cc1ncco1` [Compound 146B, 2-{[(2S)-4-{6-[(4-cyano-2-fluorobenzyl)oxy]pyridin-2-yl}-2-methylpiperazin-1-yl]methyl}-1-(1,3-oxazol-2-ylmethyl)-1H-benzimidazole-6-carboxylic acid], at human GLP-1R [1], the pEC50 was 7.37 and the Emax came to 82%. At human GLP-1R [2], the pEC50 is 6.17 and the maximal effect (Emax) turned out to be 110%.
As to `N#Cc1ccc(COc2cccc(N3CCN(Cc4nc5ccc(C(=O)O)cc5n4Cc4cnco4)CC3)n2)c(F)c1` [Compound 142B, 2-[(4-{6-[(4-cyano-2-fluorobenzyl)oxy]pyridin-2-yl}piperazin-1-yl)methyl]-1-(1,3-oxazol-5-ylmethyl)-1H-benzimidazole-6-carboxylic acid], at human GLP-1R [1], the pEC50 is 8.05 and the Emax worked out at 82%. On human GLP-1R [2], this compound gave a pEC50 of 6.77 and an Emax of 85%.
Turning to `CCCn1cnnc1Cn1c(CN2CCC(c3cccc(OCc4ccc(Cl)cc4F)n3)CC2)nc2ccc(C(=O)O)cc21` [Compound 187B, 2-[(4-{6-[(4-chloro-2-fluorobenzyl)oxy]pyridin-2-yl}piperidin-1-yl)methyl]-1-[(4-propyl-4H-1,2,4-triazol-3-yl)methyl]-1H-benzimidazole-6-carboxylic acid], at human GLP-1R [1], the pEC50 was 7.31 and the Emax was 71%. On human GLP-1R [2], this compound showed a pEC50 of 5.68.
Compound `Cn1c(CN2CCC(c3cccc(OCc4ccc(Cl)cc4F)n3)CC2)nc2cc(F)c(C(=O)O)cc21` [Compound 206B, 2-[(4-{6-[(4-chloro-2-fluorobenzyl)oxy]pyridin-2-yl}piperidin-1-yl)methyl]-5-fluoro-1-methyl-1H-benzimidazole-6-carboxylic acid] showed a pEC50 at human GLP-1R [1] of 7.42. At human GLP-1R [2], this compound showed a pEC50 of 6.12 and an Emax of 91%.
In the case of `[2H]C([2H])(Oc1cccc(C2CCN(Cc3nc4ccc(C(=O)O)cc4n3C[C@@H]3CCO3)CC2)n1)c1ccc(C#N)cc1F` [Compound 112B, 2-{[4-(6-{[(4-cyano-2-fluorophenyl)(methyl-d2)]oxy}pyridin-2-yl)piperidin-1-yl]methyl}-1-[(2S)-oxetan-2-ylmethyl]-1H-benzimidazole-6-carboxylic acid], the Emax on human GLP-1R [1] came out at 84%; on human GLP-1R [2], 70%.
Regarding `C[C@H]1CN(c2cccc(OCc3ccc(C#N)cc3F)n2)CCN1Cc1nc2ccc(C(=O)O)cc2n1Cc1cncn1C` [Compound 249B, 2-{[(2S)-4-{6-[(4-cyano-2-fluorobenzyl)oxy]pyridin-2-yl}-2-methylpiperazin-1-yl]methyl}-1-[(1-methyl-1H-imidazol-5-yl)methyl]-1H-benzimidazole-6-carboxylic acid], the values for the negative-log EC50 (pEC50) at human GLP-1R [1] and on human GLP-1R [2] were 8.80 and 7.46, respectively. Besides, the Emax turned out to be 84% at human GLP-1R [1] and 78% on human GLP-1R [2].
`N#Cc1ccc(COc2cccc(C3CCN(Cc4nc5ccc(C(=O)O)cc5n4C[C@@H]4CCCO4)CC3)n2)c(F)c1` [Compound 124B, 2-[(4-{6-[(4-cyano-2-fluorobenzyl)oxy]pyridin-2-yl}piperidin-1-yl)methyl]-1-[(2S)-tetrahydrofuran-2-ylmethyl]-1H-benzimidazole-6-carboxylic acid]: on human GLP-1R [1], the pEC50 is 8.19 and the Emax worked out at 90%. At human GLP-1R [2], this compound had a pEC50 of 6.96 and an Emax of 94%.
For `N#Cc1ccc(COc2nc(C3CCN(Cc4nc5ccc(C(=O)O)cc5n4CC4CCOC4)CC3)ccc2F)cc1` (stereo not drawn) [Compound 361B, 2-[(4-{6-[(4-cyanobenzyl)oxy]-5-fluoropyridin-2-yl}piperidin-1-yl)methyl]-1-(tetrahydrofuran-3-ylmethyl)-1H-benzimidazole-6-carboxylic acid], the Emax at human GLP-1R [1] amounted to 73%; at human GLP-1R [2], 81%.
Take `O=C(O)c1ccc2nc(CN3CCC(c4cccc(OCc5ccc(Cl)cc5F)n4)CC3)n(C[C@H]3CCO3)c2n1` [Compound 216B, 2-[(4-{6-[(4-chloro-2-fluorobenzyl)oxy]pyridin-2-yl}piperidin-1-yl)methyl]-3-[(2R)-oxetan-2-ylmethyl]-3H-imidazo[4,5-b]pyridine-5-carboxylic acid]: at human GLP-1R [1], the pEC50 was 9.33 and the Emax worked out at 77%. Also, at human GLP-1R [2], the pEC50 was 8.30 and the Emax came to 94%.
As to `O=C(O)c1ccc2nc(CN3CCC(c4cccc(OCc5ccc(Cl)cc5F)n4)CC3)n(Cc3ccc(Cl)cn3)c2c1` [Compound 277B, 2-[(4-{6-[(4-chloro-2-fluorobenzyl)oxy]pyridin-2-yl}piperidin-1-yl)methyl]-1-[(5-chloropyridin-2-yl)methyl]-1H-benzimidazole-6-carboxylic acid], at human GLP-1R [1], the pEC50 was 8.09 and the Emax was 64%. At human GLP-1R [2], the pEC50 was 6.64 and the Emax turned out to be 77%.
In the case of `N#Cc1ccc(COc2cccc(C3CCN(Cc4nc5ccc(C(=O)O)cc5n4C[C@H]4CCCO4)CC3)n2)cc1` [Compound 132B, 2-[(4-{6-[(4-cyanobenzyl)oxy]pyridin-2-yl}piperidin-1-yl)methyl]-1-[(2R)-tetrahydrofuran-2-ylmethyl]-1H-benzimidazole-6-carboxylic acid], on human GLP-1R [1], the pEC50 was 7.15 and the Emax came to 80%. On human GLP-1R [2], this compound gave a pEC50 of 5.74 and an Emax of 85%.
For `N#Cc1ccc(COc2cccc(C3CCN(Cc4nc5ccc(C(=O)O)nc5n4C[C@@H]4CCO4)CC3)n2)c(F)c1` [Compound 114B, 2-[(4-{6-[(4-cyano-2-fluorobenzyl)oxy]pyridin-2-yl}piperidin-1-yl)methyl]-3-[(2S)-oxetan-2-ylmethyl]-3H-imidazo[4,5-b]pyridine-5-carboxylic acid] the same measures were 8.15, 81%, 6.92 and 85%.

The record behind these values is patent US20250235460A1, “COMBINATION THERAPY USING GLUCOSE-DEPENDENT INSULINOTROPIC POLYPEPTIDE RECEPTOR ANTAGONIST COMPOUNDS AND GLP-1 RECEPTOR AGONIST COMPOUNDS” (Pfizer Inc., priority 2024, published 2025).
